In brackets after ≈: the same amount, converted by molar mass.
Tests used:
AGS = assay: MTT assay, cytotoxic activity; assay type: cell-based, human; details: 24 h, n = 12; for IC50: Homo sapiens
Procedure: (§1) The human ovarian SKOV-3, gastric adenocarcinoma AGS, cervical HeLa cell lines and non-cancerous keratinocytes HaCaT were obtained from the American Type Culture Collection (ATCC, Manassas, VA, USA). The cell lines were cultured in McCoy’s Medium, Dulbecco’s Modified Eagle’s Medium/F12, and DMEM, respectively (Merck Millipore, Burlington, MA, USA). Penicillin (100 units/mL), streptomycin ([…]), and 10% (v/v) fetal bovine serum (FBS) were added to all the media. The cells were incubated at 37 °C and 5% CO2.
(§2) To estimate the cytotoxic activity of the obtained compounds 2a-i, MTT assay was used. The cells (5 × 10^3 cells/well) were treated with the compounds in a range of concentrations 1–150 µg/mL. […] After 24 h, MTT solution (0.5 mg/mL) was added to the cells. Formazan crystals were dissolved in DMSO and the absorbance was measured with a microtiter plate reader (Epoch, BioTek Instruments, Winooski, VT, USA).

HeLa = assay: MTT assay, cytotoxic activity; assay type: cell-based, human; details: 24 h, n = 12; for IC50: Homo sapiens
Procedure: as §1, §2

SKOV-3 = assay: MTT assay, cytotoxic activity; assay type: cell-based, human; details: SKOV-3, MTT, 24 h, n = 12; for IC50: Homo sapiens, SK-OV-3
Procedure: as §1, §2

HaCaT = assay: MTT assay, cytotoxic activity on non-cancerous keratinocytes; assay type: cell-based; details: Homo sapiens, 24 h, n = 12
Procedure: as §1, §2

S. aureus ATCC 6535 = assay: Microbroth dilution assay; assay type: cell-based; details: Staphylococcus aureus, ATCC6535
S. aureus MRSA 12673 = assay: Microbroth dilution assay; assay type: cell-based; details: Staphylococcus aureus, S. aureus MRSA 12673; for MIC: read-out: MIC
E. coli ATCC 8739 = assay: Microbroth dilution assay; assay type: cell-based; details: Escherichia coli, ATCC8739, E. coli ATCC 8739; for MIC: read-out: MIC
Procedure: (§3) The minimum inhibitory concentration (MIC) and minimum bactericidal/fungicidal concentration (MBC/MFC) of the tested compounds were determined by the microbroth dilution technique using 96-well plates based on the methodology described in the EUCAST (European Committee on Antimicrobial Susceptibility Testing) standards. Reference and clinical strains of Gram-positive (Staphylococcus aureus ATCC 6538, Staphylococuccus aureus MRSA 6347) and Gram-negative (Escherichia coli ATCC 8739) bacteria, and yeast (Candida albicans ATCC 10231, Candida glabrata ATCC 2001) were used for the assay. The studies were carried out in the Mueller–Hinton (MH) broth for bacteria and RPMI 1640 broth + MOPS (Sigma-Aldrich, Poland) buffer in the case of yeast. The dry test samples were dissolved in DMSO (dimethyl sulfoxide), resulting in a final concentration of 15 mg/mL, and then diluted in a geometric progression. Ampicillin (Sigma-Aldrich, Poland) acted as a control sample (512 to 4 µg/mL) for bacteria and ketoconazole (128 to 1 µg/mL) (Sigma-Aldrich, Poland) acted as a control sample for yeast. The cultures of microorganisms were prepared by transferring cells from the stock cultures to tubes with the appropriate broth and incubated with agitation in an aerobic atmosphere for 18 ± 2 h at 35 ± 1 °C; next, they were diluted to achieve an optical density corresponding to 5 × 105 (bacteria) or 2 × 105 (yeast) colony-forming units per mL (cfu/mL). An appropriate media (96 µL), along with the tested compounds with a final concentration range of 300–3.1 µg/mL (4 µL) and next microbial suspension (100 µL) were added to each well. Plates with samples were incubated in adequate conditions described above and microbial growth was assessed. […] (>90%; ketoconazole) but 50% (for other compounds) inhibits visible growth of yeasts. Next, as a control of microbial viability, 100 µL of the samples from each well without growth was inoculated on the MH or RPMI agar plates and incubated for 18 ± 2 h at 35 ± 1 °C and finally, the CFU was counted. The MBC/MFC was determined as the minimum concentration of compounds required to kill 99.9% the organisms.

C. albicans ATCC 10231 = assay: Microbroth dilution assay; assay type: cell-based, Candida albicans; details: Candida albicans, ATCC10231, C. albicans ATCC 10231; for MFC: read-out: MFC; for MIC: read-out: MIC
Procedure: as §3

C. glabrata ATCC 2001 = assay: Microbroth dilution assay; assay type: cell-based, Candida glabrata; details: Nakaseomyces glabratus, ATCC2001
Procedure: as §3

[1] = target: T1, AGE2-BSA/sRAGE interaction (Homo sapiens, UniProt Q15109); assay: ELISA AGE2-BSA/sRAGE inhibitory screening; assay type: binding
T1 construct: purchased Creative BioMart
Procedure: The in vitro inhibitor screening of AGE2 (glyceraldehyde-modified AGE)-sRAGE interaction (soluble RAGE) was performed using a 96-well AGE-BSA-coated plate (Creative BioMart® ELISA kit, Shirley, NY, USA), according to the manufacturer’s instructions. 100 UA/mL soluble RAGE (sRAGE) was incubated with 100 μM of the tested compounds or 0.05% DMSO as a negative control on an AGE2-BSA-coated plate at room temperature for 60 min, shaking at 300 rpm on an orbital microplate shaker. After incubation, the wells were washed 4 times with wash buffer and horseradish peroxidase (HRP)-labeled anti-RAGE antibody was added and the plate was further incubated at room temperature for 60 min, shaking at 300 rpm on an orbital microplate shaker. After incubation, the wells were washed 4 times with wash buffer and the Substrate Reagent was added to each well. After an incubation at room temperature for 5 min, the HRP-labeled antibody sRAGE-AGE complex was then detected by measuring the absorbance at 450 nm using the microplate reader Varioskan (Thermo Fischer Scientific). These experiments were repeated two times.

[2] = test system: HeLa, SKOV-3, AGS (and HaCaT) cell lines; assay: MTT assay, ranges stated over several cell lines; assay type: cell-based, human; details: for IC50: Homo sapiens
Procedure: as §1, §2

[3] = range over the cancer cell lines HeLa, SKOV-3 and AGS
[4] = range over HeLa and SKOV-3 cell lines

T1 sequence (Q15109 23-342 limits assumed): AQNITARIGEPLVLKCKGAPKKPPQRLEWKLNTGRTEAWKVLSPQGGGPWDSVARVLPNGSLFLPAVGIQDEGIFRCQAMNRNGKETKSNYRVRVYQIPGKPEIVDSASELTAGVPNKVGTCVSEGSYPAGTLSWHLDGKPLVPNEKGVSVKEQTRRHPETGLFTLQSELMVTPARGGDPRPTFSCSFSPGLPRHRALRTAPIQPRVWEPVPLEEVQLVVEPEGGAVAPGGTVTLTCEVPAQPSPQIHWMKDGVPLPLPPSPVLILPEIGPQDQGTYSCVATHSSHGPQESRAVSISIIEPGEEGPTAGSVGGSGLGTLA

SMILES	MIC (S. aureus ATCC 6535) [µg/mL]	MIC (S. aureus MRSA 12673) [µg/mL]	MIC (E. coli ATCC 8739) [µg/mL]	MIC (C. albicans ATCC 10231) [µg/mL]	MIC (C. glabrata ATCC 2001) [µg/mL]	inhibition at 100 µM [1] [%]	IC50 (AGS) [µg/mL]	IC50 (HeLa) [µg/mL]	IC50 (SKOV-3) [µg/mL]	IC50 (HaCaT) [µg/mL]	MBC (S. aureus ATCC 6535) [µg/mL]	MBC (S. aureus MRSA 12673) [µg/mL]	MBC (E. coli ATCC 8739) [µg/mL]	MFC (C. albicans ATCC 10231) [µg/mL]	MFC (C. glabrata ATCC 2001) [µg/mL]	IC50 [2, 3] [µg/mL]	IC50 [2, 4] [µg/mL]	also measured
O=[N+]([O-])c1ccc(/C=C(/C2=NCCN2)n2ccc3ccccc32)cc1 [Compound 2g, (Z)-1-[1-(4,5-dihydro-1H-imidazol-2-yl)-2-(4-nitrophenyl)vinyl]-1H-indole]	55 (≈ 165 µM)	110 (≈ 331 µM)	220 (≈ 662 µM)	> 220	> 220		10.14 ± 0.08 (≈ 30.5 µM)	5.6 ± 0.57 (≈ 16.8 µM)	7.06 ± 0.62 (≈ 21.2 µM)	9.15 ± 0.74 (≈ 27.5 µM)	110 (≈ 331 µM)	> 220	> 220	> 220	> 220		5.6 to 7.06 (≈ 16.8 to 21.2 µM)	
O=C1[O][Pt]2([NH][C@@H]3CCCC[C@H]3[NH]2)[O]C1=O [Oxaliplatin, reference compound]																		IC50 ± SD (AGS): 17.90 ± 1.20 µg/mL; IC50 ± SD (HeLa): 35.76 ± 1.72 µg/mL; IC50 ± SD (SKOV-3): 102.16 ± 9.26 µg/mL; IC50 (range over cell lines) [2, 4]: 35.76 to 102.16 µg/mL

Continued by falling MIC (S. aureus ATCC 6535), values first:

MIC (S. aureus ATCC 6535) [µg/mL]	MIC (S. aureus MRSA 12673) [µg/mL]	MIC (E. coli ATCC 8739) [µg/mL]	MIC (C. albicans ATCC 10231) [µg/mL]	MIC (C. glabrata ATCC 2001) [µg/mL]	inhibition at 100 µM [1] [%]	SMILES	IC50 (AGS) [µg/mL]	IC50 (HeLa) [µg/mL]	IC50 (SKOV-3) [µg/mL]	IC50 (HaCaT) [µg/mL]	MBC (S. aureus ATCC 6535) [µg/mL]	MBC (S. aureus MRSA 12673) [µg/mL]	MBC (E. coli ATCC 8739) [µg/mL]	MFC (C. albicans ATCC 10231) [µg/mL]	MFC (C. glabrata ATCC 2001) [µg/mL]	IC50 [2, 3] [µg/mL]	IC50 [2, 4] [µg/mL]	also measured
120 (≈ 393 µM)	120 (≈ 393 µM)	240 (≈ 786 µM)	> 240	> 240	12	Fc1ccc(/C=C(/C2=NCCN2)n2ccc3ccccc32)cc1 [Compound 2d, (Z)-1-[1-(4,5-dihydro-1H-imidazol-2-yl)-2-(4-fluorophenyl)vinyl]-1H-indole]	15.5 ± 0.72 (≈ 50.7 µM)	8.65 ± 0.68 (≈ 28.3 µM)	10.2 ± 0.45 (≈ 33.6 µM)	7.37 ± 0.28 (≈ 24.1 µM)	240 (≈ 786 µM)	> 240	> 240	> 240	> 240	8.65 to 15.5 (≈ 28.3 to 50.7 µM)		
110 (≈ 383 µM)	220 (≈ 766 µM)	220 (≈ 766 µM)	> 220	> 220		C(=C(\C1=NCCN1)n1ccc2ccccc21)/c1ccccc1 [Compound 2a, (Z)-1-[1-(4,5-dihydro-1H-imidazol-2-yl)-2-(phenyl)vinyl]-1H-indole]	17.2 ± 0.68 (≈ 60 µM)	8.96 ± 0.33 (≈ 31.2 µM)	9.81 ± 0.45 (≈ 34.1 µM)	11.7 ± 1.31 (≈ 40.7 µM)	220 (≈ 766 µM)	> 220	220 (≈ 766 µM)	> 220	> 220			
30 (≈ 93.2 µM)	60 (≈ 186 µM)	120 (≈ 373 µM)	120 (≈ 373 µM)	240 (≈ 746 µM)	34.7	Clc1ccc(/C=C(/C2=NCCN2)n2ccc3ccccc32)cc1 [Compound 2e, (Z)-1-[2-(4-chlorophenyl)-1-(4,5-dihydro-1H-imidazol-2-yl)vinyl]-1H-indole]	11.4 ± 0.74 (≈ 35.3 µM)	3.13 ± 0.3 (≈ 9.73 µM)	4.4 ± 0.16 (≈ 13.7 µM)	3.43 ± 0.05 (≈ 10.7 µM)	60 (≈ 186 µM)	240 (≈ 746 µM)	240 (≈ 746 µM)	240 (≈ 746 µM)	240 (≈ 746 µM)		3.13 to 4.4 (≈ 9.73 to 13.7 µM)	
27.5 (≈ 75.1 µM)	55 (≈ 150 µM)	110 (≈ 300 µM)	110 (≈ 300 µM)	220 (≈ 601 µM)	46.6	Brc1ccc(/C=C(/C2=NCCN2)n2ccc3ccccc32)cc1 [Compound 2f, (Z)-1-[2-(4-bromophenyl)-1-(4,5-dihydro-1H-imidazol-2-yl)vinyl]-1H-indole]	11.1 ± 1.24 (≈ 30.4 µM)	2.37 ± 0.15 (≈ 6.47 µM)	2.76 ± 0.18 (≈ 7.54 µM)	3.13 ± 0.09 (≈ 8.55 µM)	55 (≈ 150 µM)	110 (≈ 300 µM)	110 (≈ 300 µM)	110 (≈ 300 µM)	220 (≈ 601 µM)	2.37 to 11.1 (≈ 6.47 to 30.4 µM)	2.37 to 2.76 (≈ 6.47 to 7.54 µM)	

From paper PMC12562379, “Facile Synthesis of N-vinylindoles via Knoevenagel Condensation: Molecular Features and Biological Activities” (International Journal of Molecular Sciences, 2025)
